Results reported in patent EP4043466B1, “PRC2 INHIBITORS” (Mirati Therapeutics, Inc., priority 2018, dated 2019).

Key:
[1] = test system: PRC2-mediated histone H3 methylation; assay: Tri-Methyl Histone H3 (Lys 27) Sandwich ELISA in Pfeiffer cells: inhibition of PRC2-mediated histone H3 methylation; type: cell-based, human; conditions: Homo sapiens; Inhibition of EZH2-mediated histone H3 trimethylation; Pfeiffer cells (EZH2 A677G), 96 hours incubation
In short: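 Pfeiffer DLBCL cells (EZH2 A677G mutant) treated with 3-fold serial dilutions, 1µM to 0.15 nM final, for 96 hours at 37°C. Acid (0.4M HCl) histone extracts, neutralized, assayed by H3K27me3 sandwich ELISA with HRP/TMB read at 450 nm.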

[2] = biological target: purified human, His-tagged PRC2 complex (Homo sapiens, UniProt O75530+Q15910); assay: Hot Spot HMT assay: inhibition of PRC2 enzymatic activity (transfer of tritiated methyl from SAM to core histone, filter binding); type: biochemical; conditions: Inhibition of PRC2-mediated enzymatic activity; 10 nM PRC2 complex, 0.05 mg/ml core histone H3, 1 uM 3H-SAM, 1 hr at 30°C
purified human, His-tagged PRC2 complex, sequence (Q15910 whole entry): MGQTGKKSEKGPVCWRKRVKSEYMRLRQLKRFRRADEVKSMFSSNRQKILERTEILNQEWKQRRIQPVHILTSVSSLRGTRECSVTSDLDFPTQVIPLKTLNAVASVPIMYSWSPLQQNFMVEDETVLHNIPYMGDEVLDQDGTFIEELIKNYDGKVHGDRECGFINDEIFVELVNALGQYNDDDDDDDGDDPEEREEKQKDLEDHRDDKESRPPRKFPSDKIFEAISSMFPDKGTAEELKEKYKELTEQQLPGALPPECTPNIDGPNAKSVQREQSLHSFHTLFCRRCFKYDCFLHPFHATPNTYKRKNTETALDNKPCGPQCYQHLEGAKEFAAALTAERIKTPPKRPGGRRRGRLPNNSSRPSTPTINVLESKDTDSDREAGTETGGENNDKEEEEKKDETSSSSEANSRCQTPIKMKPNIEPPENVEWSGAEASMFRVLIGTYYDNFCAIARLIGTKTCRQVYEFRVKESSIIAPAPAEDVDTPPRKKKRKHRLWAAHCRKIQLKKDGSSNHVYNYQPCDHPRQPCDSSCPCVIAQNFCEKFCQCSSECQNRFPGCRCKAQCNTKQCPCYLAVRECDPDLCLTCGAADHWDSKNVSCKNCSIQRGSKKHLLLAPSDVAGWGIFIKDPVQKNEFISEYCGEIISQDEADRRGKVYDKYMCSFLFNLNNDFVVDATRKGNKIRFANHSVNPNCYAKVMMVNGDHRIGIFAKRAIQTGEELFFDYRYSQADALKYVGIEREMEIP
purified human, His-tagged PRC2 complex, sequence (O75530 whole entry): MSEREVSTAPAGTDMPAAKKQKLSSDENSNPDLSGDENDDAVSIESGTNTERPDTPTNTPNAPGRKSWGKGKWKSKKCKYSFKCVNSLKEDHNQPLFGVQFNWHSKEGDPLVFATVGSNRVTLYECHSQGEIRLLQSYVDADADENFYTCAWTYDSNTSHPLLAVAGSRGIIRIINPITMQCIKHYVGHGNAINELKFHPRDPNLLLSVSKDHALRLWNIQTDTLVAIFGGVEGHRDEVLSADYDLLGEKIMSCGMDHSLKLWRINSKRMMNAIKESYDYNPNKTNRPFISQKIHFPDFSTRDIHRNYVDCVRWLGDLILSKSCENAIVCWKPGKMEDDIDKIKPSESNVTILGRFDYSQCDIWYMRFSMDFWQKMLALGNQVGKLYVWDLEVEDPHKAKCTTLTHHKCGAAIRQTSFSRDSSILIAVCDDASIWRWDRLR
purified human, His-tagged PRC2 complex, sequence (Q15022 whole entry partner): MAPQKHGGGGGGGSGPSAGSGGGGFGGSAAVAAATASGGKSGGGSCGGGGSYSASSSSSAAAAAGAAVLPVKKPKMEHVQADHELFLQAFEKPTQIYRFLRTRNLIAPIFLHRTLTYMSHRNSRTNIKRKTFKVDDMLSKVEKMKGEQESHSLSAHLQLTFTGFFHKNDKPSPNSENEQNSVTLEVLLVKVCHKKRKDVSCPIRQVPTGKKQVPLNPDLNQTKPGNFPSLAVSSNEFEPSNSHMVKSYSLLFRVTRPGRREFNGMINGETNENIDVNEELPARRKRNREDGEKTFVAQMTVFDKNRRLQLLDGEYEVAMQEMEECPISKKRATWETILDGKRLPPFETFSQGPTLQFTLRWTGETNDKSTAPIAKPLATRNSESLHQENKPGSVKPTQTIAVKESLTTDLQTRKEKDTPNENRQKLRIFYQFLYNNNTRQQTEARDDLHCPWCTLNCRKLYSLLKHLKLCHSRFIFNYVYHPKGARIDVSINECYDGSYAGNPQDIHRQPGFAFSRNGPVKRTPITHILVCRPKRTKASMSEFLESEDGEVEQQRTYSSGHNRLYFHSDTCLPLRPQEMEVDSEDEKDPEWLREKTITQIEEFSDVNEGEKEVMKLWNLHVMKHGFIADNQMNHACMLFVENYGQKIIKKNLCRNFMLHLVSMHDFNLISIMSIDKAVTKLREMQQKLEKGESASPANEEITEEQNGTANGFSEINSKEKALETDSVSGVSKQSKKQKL
purified human, His-tagged PRC2 complex, sequence (Q6ZN18 whole entry partner): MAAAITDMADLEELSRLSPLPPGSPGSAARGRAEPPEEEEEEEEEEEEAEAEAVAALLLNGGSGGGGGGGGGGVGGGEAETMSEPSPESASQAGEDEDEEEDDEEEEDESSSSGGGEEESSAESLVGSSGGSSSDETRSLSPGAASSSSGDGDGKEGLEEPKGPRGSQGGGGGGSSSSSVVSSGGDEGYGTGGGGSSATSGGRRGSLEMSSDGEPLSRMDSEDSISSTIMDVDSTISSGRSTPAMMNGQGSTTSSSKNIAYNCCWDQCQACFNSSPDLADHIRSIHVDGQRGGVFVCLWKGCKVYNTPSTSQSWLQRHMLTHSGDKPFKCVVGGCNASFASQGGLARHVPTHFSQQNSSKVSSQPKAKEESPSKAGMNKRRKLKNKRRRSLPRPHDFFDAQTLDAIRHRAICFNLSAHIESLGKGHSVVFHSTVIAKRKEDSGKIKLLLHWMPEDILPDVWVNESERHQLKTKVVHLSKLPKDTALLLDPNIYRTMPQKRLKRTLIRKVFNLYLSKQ
purified human, His-tagged PRC2 complex, sequence (Q09028 whole entry partner): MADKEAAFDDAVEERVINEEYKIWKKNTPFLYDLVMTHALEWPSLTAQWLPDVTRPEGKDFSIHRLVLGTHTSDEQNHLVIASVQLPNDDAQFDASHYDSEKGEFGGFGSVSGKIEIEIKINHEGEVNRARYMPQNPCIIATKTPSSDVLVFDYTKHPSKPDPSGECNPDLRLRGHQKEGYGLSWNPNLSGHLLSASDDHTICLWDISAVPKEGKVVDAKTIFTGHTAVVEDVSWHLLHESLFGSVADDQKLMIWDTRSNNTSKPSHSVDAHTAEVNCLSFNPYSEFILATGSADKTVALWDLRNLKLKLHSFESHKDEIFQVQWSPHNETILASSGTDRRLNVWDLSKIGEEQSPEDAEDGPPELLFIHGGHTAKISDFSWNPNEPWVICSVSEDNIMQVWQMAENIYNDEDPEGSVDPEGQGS
In short: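 Serial compound dilutions starting at 1.0 µM were pre-incubated 20 min at 30°C with 10 nM complex (His-EZH2, Flag-EED, His-SUZ12, His-AEBP2, His-RbAp48) and 0.05 mg/ml core H3. Reaction ran 1 hr at 30°C after adding 1 uM [3H]-SAM; scintillation counting followed filtration.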

Karpas 422 cells = assay: Karpas 422 cell viability, CTG (Cell Titre Glo) assay; type: cell-based, human; conditions: Homo sapiens; Inhibition of proliferation of Karpas 422 cells (EZH2 Y641N); viability measured Day 4, Day 7 or Day 11, time point of the tabulated values not stated
In short: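 CellTiter-Glo viability IC50s taken at Day 4, Day 7 and Day 11 of continuous compound exposure (3-fold series, 10µM top, 1.5nM lowest) in RPMI/20% FBS at 37 °C. Y641N-mutant EZH2 lymphoma line seeded at 1000 cells per well; medium and compound replaced on Day 7 for Day 11 read.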

Compound | IC50 [1] [nM] | IC50 [2] [nM] | IC50 (Karpas 422 cells) [nM]
N#Cc1cn2c(NCc3c(F)ccc4c3CCO4)ncc(-c3ccc(C(=O)O)cc3)c2n1 [Example 183, 4-(2-cyano-5-(((5-fluoro-2,3-dihydrobenzofuran-4-yl)methyl)amino)imidazo[1,2-c]pyrimidin-8-yl)benzoic acid] | > 500 | < 100 | > 500
Cc1cc(S(=O)(=O)C(F)(F)F)ccc1-c1cnc(NCc2c(F)ccc3c2CCO3)n2cc(C#N)nc12 [Example 184, 5-(((5-fluoro-2,3-dihydrobenzofuran-4-yl)methyl)amino)-8-(2-methyl-4-((trifluoromethyl)sulfonyl)phenyl)imidazo[1,2-c]pyrimidine-2-carbonitrile] | 100 to 500 | 100 to 500 | 250 to 500
CNCc1ccc(-c2cnc(NCc3c(F)ccc4c3CCO4)n3cc(C#N)nc23)cc1 [Example 185, 5-(((5-fluoro-2,3-dihydrobenzofuran-4-yl)methyl)amino)-8-(4-((methylamino)methyl)phenyl)imidazo[1,2-c]pyrimidine-2-carbonitrile] | ≤ 100 | < 100 | ≤ 250
CNC(=O)c1ccc(-c2cnc(NCc3c(F)ccc4c3CCO4)n3cc(C#N)nc23)cc1 [Example 186, 4-(2-cyano-5-(((5-fluoro-2,3-dihydrobenzofuran-4-yl)methyl)amino)imidazo[1,2-c]pyrimidin-8-yl)-N-methylbenzamide] | 100 to 500 | < 100 | ≤ 250
N#Cc1cn2c(NCc3c(F)ccc4c3CCO4)ncc(-c3ccccc3C#N)c2n1 [Example 187, 8-(2-cyanophenyl)-5-(((5-fluoro-2,3-dihydrobenzofuran-4-yl)methyl)amino)imidazo[1,2-c]pyrimidine-2-carbonitrile] | 100 to 500 | < 100 | 250 to 500
N#Cc1cc(-c2cnc(NCc3c(F)ccc4c3CCO4)n3cc(C#N)nc23)ccn1 [Example 188, 8-(2-cyanopyridin-4-yl)-5-(((5-fluoro-2,3-dihydrobenzofuran-4-yl)methyl)amino)imidazo[1,2-c]pyrimidine-2-carbonitrile] | 100 to 500 | 100 to 500 | 250 to 500
CN(C)CCOc1ccc(-c2cnc(NCc3c(F)ccc4c3CCO4)n3cc(C#N)nc23)cc1 [Example 189, 8-(4-(2-(dimethylamino)ethoxy)phenyl)-5-(((5-fluoro-2,3-dihydrobenzofuran-4-yl)methyl)amino)imidazo[1,2-c]pyrimidine-2-carbonitrile] | 100 to 500 | 100 to 500 | ≤ 250
N#Cc1cn2c(NCc3c(F)ccc4c3CCO4)ncc(-c3ccc(-c4nnn[nH]4)cc3)c2n1 [Example 190, 8-(4-(1H-tetrazol-5-yl)phenyl)-5-(((5-fluoro-2,3-dihydrobenzofuran-4-yl)methyl)amino)imidazo[1,2-c]pyrimidine-2-carbonitrile] | > 500 | < 100 | > 500
COCCOc1ncc(-c2cnc(NCc3c(F)ccc4c3CCO4)n3cc(C#N)nc23)cn1 [Example 191, 5-(((5-fluoro-2,3-dihydrobenzofuran-4-yl)methyl)amino)-8-(2-(2-methoxyethoxy)pyrimidin-5-yl)imidazo[1,2-c]pyrimidine-2-carbonitrile] | 100 to 500 | 100 to 500 | 250 to 500
Cc1ccc(-c2cnc(NCc3c(F)ccc4c3CCO4)n3cc(C#N)nc23)c(C)c1 [Example 192, 8-(2,4-dimethylphenyl)-5-(((5-fluoro-2,3-dihydrobenzofuran-4-yl)methyl)amino)imidazo[1,2-c]pyrimidine-2-carbonitrile] | > 500 | > 500 | > 500
N#Cc1cn2c(NCc3c(F)ccc4c3CCO4)ncc(-c3ccnn3C3CC3)c2n1 [Example 193, 8-(1-cyclopropyl-1H-pyrazol-5-yl)-5-(((5-fluoro-2,3-dihydrobenzofuran-4-yl)methyl)amino)imidazo[1,2-c]pyrimidine-2-carbonitrile] | 100 to 500 | < 100 | ≤ 250
Cn1nccc(-c2cnc(NCc3c(F)ccc4c3CCO4)n3cc(C#N)nc23)c1=O [Example 194, 5-(((5-fluoro-2,3-dihydrobenzofuran-4-yl)methyl)amino)-8-(2-methyl-3-oxo-2,3-dihydropyridazin-4-yl)imidazo[1,2-c]pyrimidine-2-carbonitrile] | 100 to 500 | 100 to 500 | ≤ 250
Cc1cc(CN(C)C)ncc1-c1cnc(NCc2c(F)ccc3c2CCO3)n2cc(C#N)nc12 [Example 195, 8-(6-((dimethylamino)methyl)-4-methylpyridin-3-yl)-5-(((5-fluoro-2,3-dihydrobenzofuran-4-yl)methyl)amino)imidazo[1,2-c]pyrimidine-2-carbonitrile] | ≤ 100 | < 100 | ≤ 250
CNCc1ccc(-c2cnc(NCc3c(F)ccc4c3CCO4)n3cc(C#N)nc23)c(C)c1 [Example 196, 5-(((5-fluoro-2,3-dihydrobenzofuran-4-yl)methyl)amino)-8-(2-methyl-4-((methylamino)methyl)phenyl)imidazo[1,2-c]pyrimidine-2-carbonitrile] | 100 to 500 | 100 to 500 | ≤ 250
CNCc1ccc(-c2cnc(NCc3c(F)ccc4c3CCO4)n3cc(C#N)nc23)cc1F [Example 197, 5-(((5-fluoro-2,3-dihydrobenzofuran-4-yl)methyl)amino)-8-(3-fluoro-4-((methylamino)methyl)phenyl)imidazo[1,2-c]pyrimidine-2-carbonitrile] | 100 to 500 | < 100 | ≤ 250
CN(C)Cc1ccc(-c2cnc(NCc3c(F)ccc4c3CCO4)n3cc(C#N)nc23)c(C#N)c1 [Example 198, 8-(2-cyano-4-((dimethylamino)methyl)phenyl)-5-(((5-fluoro-2,3-dihydrobenzofuran-4-yl)methyl)amino)imidazo[1,2-c]pyrimidine-2-carbonitrile] | 100 to 500 | < 100 | ≤ 250
CC(c1ccc(-c2cnc(NCc3c(F)ccc4c3CCO4)n3cc(C#N)nc23)cc1)N(C)C (stereo not drawn) [Example 199, 8-(4-(1-(dimethylamino)ethyl)phenyl)-5-(((5-fluoro-2,3-dihydrobenzofuran-4-yl)methyl)amino)imidazo[1,2-c]pyrimidine-2-carbonitrile] | 100 to 500 | < 100 | ≤ 250
Cc1cc(-c2cnc(NCc3c(F)ccc4c3CCO4)n3cc(C#N)nc23)ccc1CN(C)C [Example 200, 8-(4-((dimethylamino)methyl)-3-methylphenyl)-5-(((5-fluoro-2,3-dihydrobenzofuran-4-yl)methyl)amino)imidazo[1,2-c]pyrimidine-2-carbonitrile] | 100 to 500 | 100 to 500 | ≤ 250
CN(C)Cc1ccc(-c2cnc(NCc3c(F)ccc4c3CCO4)n3cc(C#N)nc23)cc1C#N [Example 201, 8-(3-cyano-4-((dimethylamino)methyl)phenyl)-5-(((5-fluoro-2,3-dihydrobenzofuran-4-yl)methyl)amino)imidazo[1,2-c]pyrimidine-2-carbonitrile] | 100 to 500 | < 100 | ≤ 250
[2H]C([2H])([2H])N(Cc1ccc(-c2cnc(NCc3c(F)ccc4c3CCO4)n3cc(C#N)nc23)c(C)c1)C([2H])([2H])[2H] [Example 202, 8-(4-((bis(methyl-d3)amino)methyl)-2-methylphenyl)-5-(((5-fluoro-2,3-dlhydrobenzofuran-4-yl)methyl)amino)imidazo[1,2-c]pyrimidine-2-carbonitrile] | ≤ 100 | < 100 | ≤ 250
N#Cc1cn2c(NCc3c(F)ccc4c3CCO4)ncc(-c3ccc4c(c3)CCNC4)c2n1 [Example 203, 5-(((5-fluoro-2,3-dihydrobenzofuran-4-yl)methyl)amino)-8-(1,2,3,4-tetrahydroisoquinolin-6-yl)imidazo[1,2-c]pyrimidine-2-carbonitrile] | 100 to 500 | 100 to 500 | 250 to 500
N#Cc1cn2c(NCc3c(F)ccc4c3CCO4)ncc(-c3ccc(C4CCCN4)cc3)c2n1 (stereo not drawn) [Example 204, 5-(((5-fluoro-2,3-dihydrobenzofuran-4-yl)methyl)amino)-8-(4-(pyrrolidin-2-yl)phenyl)imidazo[1,2-c]pyrimidine-2-carbonitrile] | ≤ 100 | 100 to 500 | ≤ 250
N#Cc1cn2c(NCc3c(F)ccc4c3CCO4)ncc(-c3ccc4c(c3)CNC4)c2n1 [Example 205, 5-(((5-fluoro-2,3-dihydrobenzofuran-4-yl)methyl)amino)-8-(isoindolin-5-yl)imidazo[1,2-c]pyrimidine-2-carbonitrile] | ≤ 100 | 100 to 500 | ≤ 250
COCCOc1ccc(-c2cnc(NCc3c(F)ccc4c3CCO4)n3cc(C#N)nc23)c(C)c1 [Example 206, 5-(((5-fluoro-2,3-dihydrobenzofuran-4-yl)methyl)amino)-8-(4-(2-methoxyethoxy)-2-methylphenyl)imidazo[1,2-c]pyrimidine-2-carbonitrile] | 100 to 500 | 100 to 500 | 250 to 500
